Experimental data from ChEMBL document CHEMBL3217497, “Design, synthesis and antiproliferative activity of indole analogues of indanocine” (2013).

What was measured:
Type in all cases: functional
CAKI-1 = test: Cytotoxicity against human CAKI-1 cells assessed as growth inhibition
MCF7 = test: Cytotoxicity against human MCF7 cells assessed as growth inhibition
HT-29 = test: Cytotoxicity against human HT-29 cells assessed as growth inhibition
ACHN = test: Cytotoxicity against human ACHN cells assessed as growth inhibition
MDA-MB-231 = test: Cytotoxicity against human MDA-MB-231 cells assessed as growth inhibition
[1] = Cytotoxicity against human OVCAR8 cells assessed as growth inhibition; conditions: OVCAR-8
TK-10 = test: Cytotoxicity against human TK10 cells assessed as growth inhibition
[2] = Cytotoxicity against human UACC62 cells assessed as growth inhibition; conditions: UACC-62
[3] = Cytotoxicity against human OVCAR5 cells assessed as growth inhibition; conditions: OVCAR-5
NCI-H322M = test: Cytotoxicity against human NCI-H322M cells assessed as growth inhibition
SK-MEL-2 = test: Cytotoxicity against human SK-MEL-2 cells assessed as growth inhibition
HOP-92 = test: Cytotoxicity against human HOP92 cells assessed as growth inhibition
SK-OV-3 = test: Cytotoxicity against human SKOV3 cells assessed as growth inhibition
MDA-MB-435 = test: Cytotoxicity against human MDA-MB-435 cells assessed as growth inhibition
NCI-H460 = test: Cytotoxicity against human NCI-H460 cells assessed as growth inhibition
RXF 393 = test: Cytotoxicity against human RXF393 cells assessed as growth inhibition
MOLT-4 = test: Cytotoxicity against human MOLT4 cells assessed as growth inhibition
SN12C = test: Cytotoxicity against human SN12C cells assessed as growth inhibition
[4] = Cytotoxicity against human EKVX cells assessed as growth inhibition
SNB-19 = test: Cytotoxicity against human SNB19 cells assessed as growth inhibition
786-0 = test: Cytotoxicity against human 786-0 cells assessed as growth inhibition
NCI-H226 = test: Cytotoxicity against human NCI-H226 cells assessed as growth inhibition
A498 = test: Cytotoxicity against human A498 cells assessed as growth inhibition
SW-620 = test: Cytotoxicity against human SW620 cells assessed as growth inhibition
HOP-62 = test: Cytotoxicity against human HOP62 cells assessed as growth inhibition
K562 = test: Cytotoxicity against human K562 cells assessed as growth inhibition
BT-549 = test: Cytotoxicity against human BT549 cells assessed as growth inhibition
SF-268 = test: Cytotoxicity against human SF268 cells assessed as growth inhibition
HL-60(TB) = test: Cytotoxicity against human HL-60(TB) cells assessed as growth inhibition
A549 = test: Cytotoxicity against human A549 cells assessed as growth inhibition
[5] = Cytotoxicity against human OVCAR4 cells assessed as growth inhibition; conditions: OVCAR-4
[6] = Cytotoxicity against human UACC257 cells assessed as growth inhibition; conditions: UACC-257
RPMI-8226 = test: Cytotoxicity against human RPMI8226 cells assessed as growth inhibition
SK-MEL-5 = test: Cytotoxicity against human SK-MEL-5 cells assessed as growth inhibition
IGROV-1 = test: Cytotoxicity against human IGROV1 cells assessed as growth inhibition
[7] = Cytotoxicity against human UO31 cells assessed as growth inhibition; conditions: UO-31
NCI-H23 = test: Cytotoxicity against human NCI-H23 cells assessed as growth inhibition
[8] = Cytotoxicity against human HCT15 cells assessed as growth inhibition; conditions: HCT-15
[9] = Cytotoxicity against human OVCAR3 cells assessed as growth inhibition; conditions: OVCAR-3
SF-295 = test: Cytotoxicity against human SF295 cells assessed as growth inhibition
SF-539 = test: Cytotoxicity against human SF539 cells assessed as growth inhibition
HCC 2998 = test: Cytotoxicity against human HCC2998 cells assessed as growth inhibition
PC-3 = test: Cytotoxicity against human PC3 cells assessed as growth inhibition
HCT-116 = test: Cytotoxicity against human HCT116 cells assessed as growth inhibition
NCI-H522 = test: Cytotoxicity against human NCI-H522 cells assessed as growth inhibition
CCRF-CEM = test: Cytotoxicity against human CCRF-CEM cells assessed as growth inhibition
LOX IMVI = test: Cytotoxicity against human LOXIMVI cells assessed as growth inhibition
SR = test: Cytotoxicity against human SR cells assessed as growth inhibition
[10] = Cytotoxicity against human NCI-ADR-RES cells assessed as growth inhibition
T47D = test: Cytotoxicity against human T47D cells assessed as growth inhibition
COLO 205 = test: Cytotoxicity against human COLO205 cells assessed as growth inhibition
M14 = test: Cytotoxicity against human M14 cells assessed as growth inhibition
DU-145 = test: Cytotoxicity against human DU145 cells assessed as growth inhibition
U-251 = test: Cytotoxicity against human U251 cells assessed as growth inhibition
KM12 = test: Cytotoxicity against human KM12 cells assessed as growth inhibition
SK-MEL-28 = test: Cytotoxicity against human SK-MEL-28 cells assessed as growth inhibition
SNB-75 = test: Cytotoxicity against human SNB75 cells assessed as growth inhibition
Malme-3M = test: Cytotoxicity against human MALME-3M cells assessed as growth inhibition
MDA-MB-468 = test: Cytotoxicity against human MDA-MB-468 cells assessed as growth inhibition
[11] = Cytotoxicity against human Hs 578T cells assessed as growth inhibition

COc1cc2c(c(N)c1OC)C(=O)/C(=C\c1cc(C)c(O)c(C)c1)C2 [INDANOCINE]
GI50 (CAKI-1): 3980 nM | GI50 (MCF7): 10 nM | GI50 (HT-29): 2510 nM | GI50 (ACHN): 60 nM | GI50 (MDA-MB-231): 10 nM | GI50 [1]: 10 nM | GI50 (TK-10): 79400 nM | GI50 [2]: 10 nM | GI50 [3]: 630 nM | GI50 (NCI-H322M): 10 nM | GI50 (SK-MEL-2): 1000 nM | GI50 (HOP-92): 100000 nM | GI50 (SK-OV-3): 10 nM | GI50 (MDA-MB-435): 10 nM | GI50 (NCI-H460): 10 nM | GI50 (RXF 393): 30 nM | GI50 (MOLT-4): 10 nM | GI50 (SN12C): 10 nM | GI50 [4]: 10 nM | GI50 (SNB-19): 10 nM | GI50 (786-0): 10 nM | GI50 (NCI-H226): 3980 nM | GI50 (A498): 7940 nM | GI50 (SW-620): 10 nM | GI50 (HOP-62): 20 nM | GI50 (K562): 10 nM | GI50 (BT-549): 10000 nM | GI50 (SF-268): 10 nM | GI50 (HL-60(TB)): 10 nM | GI50 (A549): 10 nM | GI50 [5]: 7940 nM | GI50 [6]: 100000 nM | GI50 (RPMI-8226): 10 nM | GI50 (SK-MEL-5): 10 nM | GI50 (IGROV-1): 40 nM | GI50 [7]: 80 nM | GI50 (NCI-H23): 10 nM | GI50 [8]: 10 nM | GI50 [9]: 10 nM | GI50 (SF-295): 60 nM | GI50 (SF-539): 10 nM | GI50 (HCC 2998): 2000 nM | GI50 (PC-3): 10 nM | GI50 (HCT-116): 10 nM | GI50 (NCI-H522): 10 nM | GI50 (CCRF-CEM): 10 nM | GI50 (LOX IMVI): 10 nM | GI50 (SR): 10 nM | GI50 [10]: 10 nM | GI50 (T47D): 100000 nM | GI50 (COLO 205): 5010 nM | GI50 (M14): 10 nM | GI50 (DU-145): 10 nM | GI50 (U-251): 20 nM | GI50 (KM12): 10 nM | GI50 (SK-MEL-28): 1000 nM

Cc1cc(/C=C2\CCc3c([nH]c4ccccc34)C2=O)cc(C)c1O
GI50 (CAKI-1): 610 nM | GI50 (MCF7): 350 nM | GI50 (HT-29): 4320 nM | GI50 (ACHN): 770 nM | GI50 (MDA-MB-231): 1060 nM | GI50 [1]: 530 nM | GI50 (TK-10): 540 nM | GI50 (SNB-75): 290 nM | GI50 [2]: 420 nM | GI50 [3]: 2350 nM | GI50 (NCI-H322M): 530 nM | GI50 (SK-MEL-2): 320 nM | GI50 (HOP-92): 780 nM | GI50 (SK-OV-3): 470 nM | GI50 (MDA-MB-435): 120 nM | GI50 (NCI-H460): 410 nM | GI50 (RXF 393): 520 nM | GI50 (MOLT-4): 560 nM | GI50 (SN12C): 620 nM | GI50 [4]: 3380 nM | GI50 (SNB-19): 580 nM | GI50 (786-0): 880 nM | GI50 (NCI-H226): 3290 nM | GI50 (A498): 1830 nM | GI50 (SW-620): 410 nM | GI50 (Malme-3M): 380 nM | GI50 (HOP-62): 650 nM | GI50 (K562): 320 nM | GI50 (BT-549): 530 nM | GI50 (SF-268): 730 nM | GI50 (MDA-MB-468): 290 nM | GI50 (HL-60(TB)): 210 nM | GI50 (A549): 550 nM | GI50 [5]: 1350 nM | GI50 [6]: 370 nM | GI50 (RPMI-8226): 470 nM | GI50 (SK-MEL-5): 330 nM | GI50 (IGROV-1): 740 nM | GI50 [7]: 450 nM | GI50 (NCI-H23): 650 nM | GI50 [8]: 420 nM | GI50 [9]: 330 nM | GI50 (SF-295): 1880 nM | GI50 (SF-539): 320 nM | GI50 (HCC 2998): 2210 nM | GI50 (PC-3): 1060 nM | GI50 (HCT-116): 440 nM | GI50 (NCI-H522): 130 nM | GI50 (CCRF-CEM): 360 nM | GI50 (LOX IMVI): 760 nM | GI50 (SR): 220 nM | GI50 [11]: 380 nM | GI50 [10]: 310 nM | GI50 (T47D): 740 nM | GI50 (COLO 205): 14200 nM | GI50 (M14): 340 nM | GI50 (DU-145): 540 nM | GI50 (U-251): 430 nM | GI50 (KM12): 390 nM | GI50 (SK-MEL-28): 740 nM
